This is an account of results in patent publication US12655160B2, “KRAS G12D inhibitors” (Mirati Therapeutics, Inc., priority 2020, dated 2026).

For experiment [1], the system named is KRas G12D-mediated Phosphorylation of ERK. The experiment can be described thus: Inhibition of KRas G12D-mediated Phosphorylation of ERK in AGS cells. Type of experiment: cell-based. The note with it: Homo sapiens; AGS cells expressing G12D, 3 hours, phospho-ERK signal normalized to GAPDH; read-out: IC50. Here is the method:
AGS cells (ATCC CRL-1739) expressing G12D were grown in DMEM medium supplemented with 10% fetal bovine serum, 10 mM HEPES, and Penicillin/Streptomycin. Cells were plated in tissue culture treated 96 well plates at a density of 40,000 cells/well and allowed to attach for 12-14 hours. Diluted compounds were then added in a final concentration of 0.5% DMSO. After 3 hours, the medium was removed, 150 μl of 4.0% formaldehyde was added and the plates incubated at room temperature for 20 minutes. The plates were washed with PBS, and permeabilized with 150 μL of ice cold 100% methanol for 10 minutes. Non-specific antibody binding to the plates was blocked using 100 μL Licor blocking buffer (Li-Cor Biotechnology, Lincoln NE) for 1 hour at room temperature.
The amount of phospho-ERK was determined using an antibody specific for the phosphorylated form of ERK and compared to the amount of GAPDH. Primary antibodies used for the detection were added as follows: Phospho-ERK(Cell Signaling cs-9101) diluted 1:500 and GAPDH (Millipore MAB374) diluted 1:5000 in Licor block+0.05% Tween 20. The plates were incubated for 2 hours at room temperature. The plates were washed with PBS+0.05% Tween 20.
Secondary antibodies used to visualize primary antibodies were added as follows: Anti-rabbit-680 diluted 1:1000 and Anti-mouse-800 diluted 1:1000 both in Licor block+0.05% Tween20, and were incubated for 1 hour at room temperature. The plates were washed with PBS+0.05% Tween 20. A 100 μl aliquot of PBS was added to each well and the plates were read on a Li-Cor Odyssey CLX plate reader.
The phospho-ERK(Thr202/Tyr204 signal was normalized to the GAPDH signal for each well and percent of DMSO control values were calculated. IC50 values were generated using a 4-parameter fit of the dose response curve

Experiment [2] deals with T1, KRas G12D (Homo sapiens, UniProt P01116, G12D). As to the kind of experiment: KRas G12D Surface Plasmon Resonance (SPR) Binding Assay. Further details: Avidin-tag (so in the source). The settings on record: Biacore T200, Biotinylated Avidin-tagged KRAS protein on SA chip, 20 C, 1:1 binding model. How it is done:
This Example illustrates that exemplary compounds of the present invention bind to KRas G12D as measured by surface plasmon resonance (SPR). Briefly, 1 L of 1.05×HBS-Mg buffer (262.5 mM BioUltra Hepes, pH 7.5, 157.5 mM NaCl, 105 mM MgCl2, 0.525 mM TCEP, 0.0305% Brij-35) was prepared and filter sterilized using a 0.22 μm bottle top filter. Approximately 50 mL of 1.05×HBS-Mg buffer was removed and saved for future dilutions. A 50 mL aliquot of DMSO (Sigma Aldrich DMSO Lot. #SHBK2079) was added and continued to stir for 10 minutes, creating the final 1.0×HBS-Mg buffer (250 mM BioUltra Hepes pH 7.5, 150 mM NaCl, 100 mM MgCl2, 0.5 mM TCEP, 0.03% Brij-35). Biacore T200 instrument was primed using 1.0×HBS-Mg buffer before docking a GE Streptavidin (SA) chip and then primed two additional times prior to beginning the immobilization step. All immobilized protein mixtures were created using 3-5 mg/mL Biotinylated Avidin-tagged KRAS protein using the following immobilization settings: SA chip type, 1 flow cells per cycle, 720 second contact time, and 5 μL/min flow rate. Normalization of the detector was also performed during the immobilization step using the GE BiaNormalize solution. All compounds were diluted to 10 mM in 100% DMSO prior to being diluted 20× in 1.05× buffer. Another 10λ dilution was created using 1.0× buffer prior to performing a series of 3× dilutions to create a compound concentration curve using the following assay settings: 20 C analysis temperature, General Settings=10 Hz data collection rate and multi-detection; Assay Steps=all set to LMW kinetics; Cycle Types=LMW kinetics (60 s contact time, 120 s dissociation time, 100 μL/min flow rate, extra wash after injection with 50% DMSO, flow path 1,2,3,4); Flow path detection=2-1, 4-3). Data evaluation was performed using the Biacore T200 Evaluation software and data fit to 1:1 binding model.
Target sequence in this assay (P01116 1-188 isoform P01116-2 G12D): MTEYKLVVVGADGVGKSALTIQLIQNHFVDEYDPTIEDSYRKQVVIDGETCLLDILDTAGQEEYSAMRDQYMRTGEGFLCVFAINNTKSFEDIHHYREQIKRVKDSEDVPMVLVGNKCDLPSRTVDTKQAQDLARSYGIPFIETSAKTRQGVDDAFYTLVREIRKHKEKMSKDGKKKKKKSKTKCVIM

The target of experiment [3] is T1, KRas G12D. As to the kind of experiment: KRas G12D Binding Assay (TR-FRET displacement of labeled tracer). Further details: corresponding to amino acids 1:169, produced at Array BioPharma Inc; biotin (biotinylated). The settings on record: TR-FRET displacement of Cy5 labelled tracer, Biotinylated GDP-loaded KRAS G12D (amino acids 1:169), 60 minute incubation at 22° C. The method in brief:
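Biotinylated GDP-loaded KRAS G12D (aa 1:169) was incubated with Cy5 tracer, Eu-streptavidin and compound (2% DMSO) in HEPES pH 7.5, MgCl2, Tween-20, DTT, 60 min at 22° C. TR-FRET ratio gave POC; IC50 from 4-parameter fit at 50 POC.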
Target sequence in this assay (P01116 1-169 isoform P01116-2 G12D): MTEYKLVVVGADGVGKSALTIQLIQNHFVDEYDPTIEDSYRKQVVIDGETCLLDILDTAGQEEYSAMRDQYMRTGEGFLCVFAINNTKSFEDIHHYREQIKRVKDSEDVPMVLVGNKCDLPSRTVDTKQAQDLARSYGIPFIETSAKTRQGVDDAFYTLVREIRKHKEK

Structures can show the parent of a compound that is named as a salt.

Take `CN(CC1(N(C)C)CCC1)c1nc(OC[C@@]23CCCN2C[C@H](F)C3)nc2c(F)c(-c3cc(O)cc4cccc(Cl)c34)ncc12` [Example 36, 5-chloro-4-(4-(((1-(dimethylamino)cyclobutyl)methyl)(methyl)amino)-8-fluoro-2-(((2R,7aS)-2-fluorotetrahydro-1H-pyrrolizin-7a(5H)-yl)methoxy)pyrido[4,3-d]pyrimidin-7-yl)naphthalen-2-ol dihydrochloride]: the IC50 worked out at 3.29 µM in experiment [1] and 76.5 nM at KRas G12D [3]. Further, the dissociation constant Kd on KRas G12D [2] is 135 nM.
